pIC50: −log10 of the molar value.

For this experiment, the target named is T1, p101/p110γ protein (PI3Kγ) (Homo sapiens, UniProt P48736).
T1 construct: HA; made in house; host or cells: Spodoptera frugiperda (Sf9) cells, baculovirus coinfection
T1 sequence (P48736 whole entry, species assumed): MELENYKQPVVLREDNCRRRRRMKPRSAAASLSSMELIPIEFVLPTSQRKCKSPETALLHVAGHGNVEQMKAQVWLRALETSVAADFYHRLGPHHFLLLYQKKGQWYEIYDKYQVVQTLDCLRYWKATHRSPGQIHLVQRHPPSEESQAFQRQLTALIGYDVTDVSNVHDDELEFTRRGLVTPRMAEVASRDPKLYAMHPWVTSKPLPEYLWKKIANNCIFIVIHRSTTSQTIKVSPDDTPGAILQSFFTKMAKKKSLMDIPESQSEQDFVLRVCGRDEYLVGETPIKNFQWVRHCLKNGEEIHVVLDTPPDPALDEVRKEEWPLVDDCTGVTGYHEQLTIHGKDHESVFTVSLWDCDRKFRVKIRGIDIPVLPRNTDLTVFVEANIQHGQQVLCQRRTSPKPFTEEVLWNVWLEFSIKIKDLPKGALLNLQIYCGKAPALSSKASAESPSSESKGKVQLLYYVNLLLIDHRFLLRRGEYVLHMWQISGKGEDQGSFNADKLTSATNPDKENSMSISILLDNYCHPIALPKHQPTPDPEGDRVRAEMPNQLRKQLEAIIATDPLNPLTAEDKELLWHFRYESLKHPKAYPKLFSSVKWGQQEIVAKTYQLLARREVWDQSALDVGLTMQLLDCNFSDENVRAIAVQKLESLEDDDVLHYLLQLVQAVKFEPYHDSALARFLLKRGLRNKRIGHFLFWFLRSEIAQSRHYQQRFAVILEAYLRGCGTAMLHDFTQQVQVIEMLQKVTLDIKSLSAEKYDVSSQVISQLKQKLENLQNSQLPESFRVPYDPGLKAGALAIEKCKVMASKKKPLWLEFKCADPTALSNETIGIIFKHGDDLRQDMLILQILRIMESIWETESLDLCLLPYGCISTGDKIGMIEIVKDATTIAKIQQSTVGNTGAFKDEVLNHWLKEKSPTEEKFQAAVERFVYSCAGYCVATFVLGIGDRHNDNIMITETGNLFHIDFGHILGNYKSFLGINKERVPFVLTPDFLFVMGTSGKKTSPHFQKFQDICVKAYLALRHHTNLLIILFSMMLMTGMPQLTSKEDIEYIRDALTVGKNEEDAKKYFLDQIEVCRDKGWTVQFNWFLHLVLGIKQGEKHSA
T1 sequence (Q8WYR1 whole entry partner, species assumed): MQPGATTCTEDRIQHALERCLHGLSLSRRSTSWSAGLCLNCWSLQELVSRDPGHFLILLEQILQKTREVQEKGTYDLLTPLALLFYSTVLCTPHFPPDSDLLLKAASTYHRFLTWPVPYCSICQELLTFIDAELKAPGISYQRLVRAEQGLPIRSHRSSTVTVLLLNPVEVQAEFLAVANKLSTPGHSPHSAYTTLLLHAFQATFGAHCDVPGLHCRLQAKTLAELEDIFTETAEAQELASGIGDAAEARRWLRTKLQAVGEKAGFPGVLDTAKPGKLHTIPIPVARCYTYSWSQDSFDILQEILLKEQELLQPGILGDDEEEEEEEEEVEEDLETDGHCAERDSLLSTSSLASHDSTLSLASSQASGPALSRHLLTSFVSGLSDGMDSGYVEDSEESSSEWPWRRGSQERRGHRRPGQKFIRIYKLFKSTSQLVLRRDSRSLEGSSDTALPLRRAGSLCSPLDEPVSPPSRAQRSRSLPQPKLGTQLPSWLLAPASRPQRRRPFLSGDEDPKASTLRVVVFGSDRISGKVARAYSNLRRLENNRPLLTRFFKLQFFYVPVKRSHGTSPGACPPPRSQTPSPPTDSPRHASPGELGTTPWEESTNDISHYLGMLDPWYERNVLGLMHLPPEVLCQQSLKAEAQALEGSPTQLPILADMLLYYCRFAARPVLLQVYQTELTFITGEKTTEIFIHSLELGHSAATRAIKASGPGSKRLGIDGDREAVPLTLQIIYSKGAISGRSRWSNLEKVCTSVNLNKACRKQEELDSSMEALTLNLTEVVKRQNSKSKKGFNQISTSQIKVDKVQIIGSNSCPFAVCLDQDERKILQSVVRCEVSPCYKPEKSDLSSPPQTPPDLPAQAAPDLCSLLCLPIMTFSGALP
The experiment can be described thus: PI3Kγ in vitro kinase assay. It counts as biochemical. The following applies: purified recombinant p101/p110γ with G protein β1/γ2 subunits; 20 μM ATP, 25 μM PIP2; 20 minutes at room temperature. On the procedure:
Spodtera frugiperda cells, grown in ESF921 media, were coinfected with baculovirus expressing a glu-tagged p101 and baculovirus expressing an HA-tagged p110γ, at a 3:1 ratio of p101 baculovirus to p110γ baculovirus. Sf9 cells were grown to 1×10^7 total cells/mL in 10 L bioreactors and harvested 48–72 hours post infection. Samples of infected cells were then tested for expression of […] PI3 kinase by immunoprecipitation and Western Blot analysis methods (see below).
To purify PI3Kγ, 4 volumes of room temperature hypotonic lysis buffer (1 mM MgCl2, 1 mM DTT, 5 mM EGTA, 1 mM Pefabloc, 0.5 μM aprotinin, 5 μM leupeptin, 2 μM pepstatin, 5 μM E64, pH 8) per gram of cell paste, was poured onto frozen cell pellets with stirring, then lysed in a nitrogen “bomb” at 400 psi (599HC T316, Parr Instrument Co, Moline, Ill.). NaCl was added to 150 mM, and sodium cholate was added to 1% and mixed for another 45 minutes. The lysates were clarified by centrifugation for 25 minutes at 14,000 rpm. The lysates were then loaded over anti-glu-linked Protein-G Sepaharose beads (Covance Research Products, Richmond, Calif.) using 20 mL resin/50 g cell paste. The column was washed with 15 volumes of wash buffer (1 mM DTT, 0.2 mM EGTA, 1 mM Pefabloc, 0.5 μM aprotinin, 5 μM leupeptin, 2 μM pepstatin, 5 μM E64, 150 mM NaCl, 1% sodium cholate, pH 8). PI3Kγ was eluted with 6 column volumes of wash buffer that contain 100 μg/mL of a peptide that competes for binding of the glu tag. The column fractions with the eluted protein (determined by taking OD280 readings) were collected and dialyzed in 0.2 mM EGTA, 1 mM DTT, 1 mM Pefabloc, 5 μM leupeptin, 0.5% sodium cholate, 150 mM NaCl, and 50% glycerol, pH 8. The fractions were stored at −80° C. until further use.
Spodtera frugiperda cells were coinfected with baculovirus expressing a glu-tagged G protein β1 and baculovirus expressing a G protein β2, at a 1:1 ratio of glu-tagged G protein β1 baculovirus to G protein β2 baculovirus. Sf9 cells are grown in 10 L bioreactors and harvested 48–72 hours post infection. Samples of infected cells were tested for G protein β1/β2 expression by Western Blot analysis, as described below. Cell lysates were homogenized and loaded onto a column of glu-tagged beads as in Biological Example 1 and competed off the column with a glu peptide and processed as described in Biological Example 1.
The inhibitory properties of the compounds in Table 1 were assayed in an in vitro PI3K assay. In a 96-well polypropylene plate, each well was spotted with 2 μL of 50 times the desired final concentration of compound in DMSO. Purified recombinant p101/p110γ protein (0.03 μg; ˜2.7 nM) and G protein β1/γ2 subunits (0.09 μg; ˜57.7 nM) for each reaction was combined in the assay buffer (30 mM HEPES, 100 mM NaCl, 1 mM EGTA, and 1 mM DTT). ATP and [γ-^32P-ATP] (0.09 μCi) were added to this mixture so that the final ATP concentration in the reaction was 20 μM. Lipid micelles were formed by sonicating phosphatidylinositol-4,5-diphosphate (PIP2), phosphatidylethanolamine (PE), and Na-cholate in the assay buffer for 10 minutes, adding MgCl2 and incubating on ice for 20 minutes, for final concentrations of 25 μM PIP2, 300 μM PE, 0.02% Na-cholate, and 10 mM MgCl2 in the reaction. The reactions were started by adding equal volumes lipid and enzyme mixture in a total volume of 50 μL, allowed to run for 20 minutes at room temperature, and stopped with 100 μL 75 mM H3PO4. The lipid product was transferred to a glass fiber filter plate and washed with 75 mM H3PO4 several times. The presence of radioactive lipid product (PIP3) was measured by adding Wallac Optiphase mix to each well and counting in a Wallac 1450 Trilux plate reader (PerkinElmer Life Sciences Inc., Boston, Mass. 02118). The IC50 for each compound tested is reported in μM in Table 1: […]
As to `COc1cc2[nH]c(C(=O)Nc3nn[nH]n3)c(Sc3ccccc3C)c2cc1OC` [Example 1, 5,6-Dimethoxy-3-o-tolylsulfanyl-1H-indole-2-carboxylic acid (2H-tetrazol-5-yl)-amide], the negative-log IC50 (pIC50) is 6.23.
`COc1cc2[nH]c(C(=O)Nc3nn[nH]n3)c(Sc3ccc(Cl)c(Cl)c3)c2cc1OC` [Example 2, 3-(3,4-Dichloro-phenylsulfanyl)-5,6-dimethoxy-1H-indole-2-carboxylic acid (2H-tetrazol-5-yl)-amide]: the pIC50 was 5.73.
With `COc1cc2c(Sc3ccccc3)c(C(=O)Nc3nn[nH]n3)n(C)c2cc1OC` [Example 3, 5,6-Dimethoxy-1-methyl-3-phenylsulfanyl-1H-indole-2-carboxylic acid (2H-tetrazol-5-yl)-amide] the figure was 6.26; with “5,6-Dimethoxy-3-phenyl-1-propyl-1H-indole-2-carboxylic acid (1H-tetrazol-5-yl)-amide [Example 7]”, 5.38.
With `COc1cccc(Sc2c(C(=O)Nc3nn[nH]n3)[nH]c3cc(OC)c(OC)cc23)c1` [Example 5, 5,6-Dimethoxy-3-(3-methoxy-phenylsulfanyl)-1H-indole-2-carboxylic acid (2H-tetrazol-5-yl)-amide], the pIC50 was 6.14.
With `COc1cc2[nH]c(C(=O)Nc3nn[nH]n3)c(Sc3ccccc3)c2cc1OC` [Example 4, 5,6-Dimethoxy-3-phenylsulfanyl-1H-indole-2-carboxylic acid (2H-tetrazol-5-yl)-amide], the pIC50 is 6.68.
In the case of “1-Ethyl-5,6-dimethoxy-3-phenyl-1H-indole-2-carboxylic acid (1H-tetrazol-5-yl)-amide [Example 6]”, the pIC50 is 5.18.

What is called pIC50 is −log10 of the IC50, conventionally taken in molar units.

Values taken from patent US7074814B2, “3-substituted indoles and derivatives thereof as therapeutic agents” (Warner-Lambert Company LLC, priority 2003, dated 2006).
